Measurements as given in PMC4457528, “Identification of Novel Small Molecule Inhibitors of Oncogenic RET Kinase” (PLoS ONE, 2015).
Like-named read-outs stand apart in the source and are kept apart here.

Experiments:
Assay in all cases: KinomeScan kinase panel, single concentration 10 µM
Type in all cases: binding
[1] = biological target: T1, KinomeScan kinase panel (Homo sapiens, UniProt P08922); conditions: read-out: score (%)
T1 construct: purchased DiscoveRx (KinomeScan)

[2] = biological target: T2, KinomeScan kinase panel (Homo sapiens, UniProt P06239); conditions: LCK, 10 µM; read-out: score (%)
T2 construct: purchased DiscoveRx (KinomeScan)

[3] = biological target: T3, KinomeScan kinase panel (Homo sapiens, UniProt Q9C098); conditions: DCAMKL3, 10 µM; read-out: score (%)
T3 construct: purchased DiscoveRx (KinomeScan)

[4] = biological target: T4, KinomeScan kinase panel (Homo sapiens, UniProt Q96PY6); conditions: NEK1, 10 µM; read-out: score (%)
T4 construct: purchased DiscoveRx (KinomeScan)
T4 sequence (Q96PY6 1-1258): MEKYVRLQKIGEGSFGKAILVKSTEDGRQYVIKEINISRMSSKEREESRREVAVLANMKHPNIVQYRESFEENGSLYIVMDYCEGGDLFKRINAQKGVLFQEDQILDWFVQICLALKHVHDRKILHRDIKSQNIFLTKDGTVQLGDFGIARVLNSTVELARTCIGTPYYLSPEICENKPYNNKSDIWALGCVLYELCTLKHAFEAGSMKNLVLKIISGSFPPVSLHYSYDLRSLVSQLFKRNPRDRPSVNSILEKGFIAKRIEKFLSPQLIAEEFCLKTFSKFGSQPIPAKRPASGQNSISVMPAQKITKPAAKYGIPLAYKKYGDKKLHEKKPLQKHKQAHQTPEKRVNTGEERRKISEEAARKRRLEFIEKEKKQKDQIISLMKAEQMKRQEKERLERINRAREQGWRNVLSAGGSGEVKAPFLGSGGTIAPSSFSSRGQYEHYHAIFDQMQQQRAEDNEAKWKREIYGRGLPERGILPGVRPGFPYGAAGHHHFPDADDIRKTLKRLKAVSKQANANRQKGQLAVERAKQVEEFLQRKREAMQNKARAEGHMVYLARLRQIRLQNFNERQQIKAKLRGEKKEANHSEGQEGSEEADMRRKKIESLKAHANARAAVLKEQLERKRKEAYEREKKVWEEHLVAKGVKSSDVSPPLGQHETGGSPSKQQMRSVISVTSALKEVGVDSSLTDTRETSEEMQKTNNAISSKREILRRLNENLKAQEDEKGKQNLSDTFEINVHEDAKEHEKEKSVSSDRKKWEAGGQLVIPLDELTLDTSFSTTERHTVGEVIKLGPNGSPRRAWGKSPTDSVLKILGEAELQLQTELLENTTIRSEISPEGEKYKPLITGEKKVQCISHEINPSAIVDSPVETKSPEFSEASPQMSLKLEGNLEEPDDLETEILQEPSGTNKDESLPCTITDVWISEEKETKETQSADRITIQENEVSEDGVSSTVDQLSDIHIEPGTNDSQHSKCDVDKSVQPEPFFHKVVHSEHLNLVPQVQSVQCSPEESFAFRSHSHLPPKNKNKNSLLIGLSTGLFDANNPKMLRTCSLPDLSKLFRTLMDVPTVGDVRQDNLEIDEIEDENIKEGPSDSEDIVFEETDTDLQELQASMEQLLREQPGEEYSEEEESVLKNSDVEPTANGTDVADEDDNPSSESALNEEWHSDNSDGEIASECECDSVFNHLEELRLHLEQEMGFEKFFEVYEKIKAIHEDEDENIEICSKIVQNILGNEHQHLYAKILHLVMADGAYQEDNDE

[5] = biological target: T5, KinomeScan kinase panel (Homo sapiens, UniProt Q9Y463); conditions: DYRK1B, 10 µM; read-out: score (%)
T5 construct: purchased DiscoveRx (KinomeScan)

[6] = biological target: T6, KinomeScan kinase panel (Homo sapiens, UniProt Q9Y616); conditions: IRAK3, 10 µM; read-out: score (%)
T6 construct: purchased DiscoveRx (KinomeScan)
T6 sequence (Q9Y616 1-596): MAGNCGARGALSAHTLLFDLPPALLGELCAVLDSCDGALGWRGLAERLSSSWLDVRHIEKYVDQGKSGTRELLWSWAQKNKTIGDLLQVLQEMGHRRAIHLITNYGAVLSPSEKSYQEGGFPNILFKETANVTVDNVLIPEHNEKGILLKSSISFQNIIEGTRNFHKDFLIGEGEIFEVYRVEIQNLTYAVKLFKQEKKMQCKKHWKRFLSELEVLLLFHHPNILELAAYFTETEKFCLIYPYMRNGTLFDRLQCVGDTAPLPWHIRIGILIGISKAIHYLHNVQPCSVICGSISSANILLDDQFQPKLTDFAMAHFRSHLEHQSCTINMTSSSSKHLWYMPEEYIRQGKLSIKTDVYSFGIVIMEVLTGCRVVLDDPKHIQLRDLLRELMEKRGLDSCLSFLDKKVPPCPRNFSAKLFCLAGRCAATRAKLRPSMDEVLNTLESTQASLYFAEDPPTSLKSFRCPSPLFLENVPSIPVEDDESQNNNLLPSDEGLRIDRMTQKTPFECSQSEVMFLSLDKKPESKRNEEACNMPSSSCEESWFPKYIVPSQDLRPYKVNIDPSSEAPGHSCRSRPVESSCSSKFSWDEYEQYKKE

[7] = biological target: T7, KinomeScan kinase panel (Homo sapiens, UniProt Q9P0L2); conditions: MARK1, 10 µM; read-out: score (%)
T7 construct: purchased DiscoveRx (KinomeScan)

[8] = biological target: T8, KinomeScan kinase panel (Homo sapiens, UniProt Q96RR4); conditions: CAMKK2, 10 µM; read-out: score (%)
T8 construct: purchased DiscoveRx (KinomeScan)

[9] = biological target: T9, KinomeScan kinase panel (Homo sapiens, UniProt P49137); conditions: MAPKAPK2, 10 µM; read-out: score (%)
T9 construct: purchased DiscoveRx (KinomeScan)

T5 sequence (Q9Y463 whole entry): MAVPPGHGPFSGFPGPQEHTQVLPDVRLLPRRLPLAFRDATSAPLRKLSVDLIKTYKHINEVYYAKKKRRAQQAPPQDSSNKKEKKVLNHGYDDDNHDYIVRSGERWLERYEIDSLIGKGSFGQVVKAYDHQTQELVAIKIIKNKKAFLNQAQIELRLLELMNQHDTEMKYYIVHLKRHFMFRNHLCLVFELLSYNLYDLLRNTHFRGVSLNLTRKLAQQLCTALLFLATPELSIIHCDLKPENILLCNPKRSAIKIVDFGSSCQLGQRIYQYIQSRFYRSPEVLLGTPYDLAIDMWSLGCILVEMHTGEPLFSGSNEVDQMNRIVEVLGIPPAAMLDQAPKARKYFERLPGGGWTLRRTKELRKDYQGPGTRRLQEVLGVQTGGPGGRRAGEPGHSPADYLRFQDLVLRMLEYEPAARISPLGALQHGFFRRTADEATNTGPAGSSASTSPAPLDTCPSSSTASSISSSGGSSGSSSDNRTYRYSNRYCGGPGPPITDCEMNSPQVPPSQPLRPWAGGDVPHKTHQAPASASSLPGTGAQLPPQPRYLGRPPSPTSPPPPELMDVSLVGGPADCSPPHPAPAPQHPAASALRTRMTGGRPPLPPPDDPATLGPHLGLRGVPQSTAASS
T1 sequence (P08922 28-2347): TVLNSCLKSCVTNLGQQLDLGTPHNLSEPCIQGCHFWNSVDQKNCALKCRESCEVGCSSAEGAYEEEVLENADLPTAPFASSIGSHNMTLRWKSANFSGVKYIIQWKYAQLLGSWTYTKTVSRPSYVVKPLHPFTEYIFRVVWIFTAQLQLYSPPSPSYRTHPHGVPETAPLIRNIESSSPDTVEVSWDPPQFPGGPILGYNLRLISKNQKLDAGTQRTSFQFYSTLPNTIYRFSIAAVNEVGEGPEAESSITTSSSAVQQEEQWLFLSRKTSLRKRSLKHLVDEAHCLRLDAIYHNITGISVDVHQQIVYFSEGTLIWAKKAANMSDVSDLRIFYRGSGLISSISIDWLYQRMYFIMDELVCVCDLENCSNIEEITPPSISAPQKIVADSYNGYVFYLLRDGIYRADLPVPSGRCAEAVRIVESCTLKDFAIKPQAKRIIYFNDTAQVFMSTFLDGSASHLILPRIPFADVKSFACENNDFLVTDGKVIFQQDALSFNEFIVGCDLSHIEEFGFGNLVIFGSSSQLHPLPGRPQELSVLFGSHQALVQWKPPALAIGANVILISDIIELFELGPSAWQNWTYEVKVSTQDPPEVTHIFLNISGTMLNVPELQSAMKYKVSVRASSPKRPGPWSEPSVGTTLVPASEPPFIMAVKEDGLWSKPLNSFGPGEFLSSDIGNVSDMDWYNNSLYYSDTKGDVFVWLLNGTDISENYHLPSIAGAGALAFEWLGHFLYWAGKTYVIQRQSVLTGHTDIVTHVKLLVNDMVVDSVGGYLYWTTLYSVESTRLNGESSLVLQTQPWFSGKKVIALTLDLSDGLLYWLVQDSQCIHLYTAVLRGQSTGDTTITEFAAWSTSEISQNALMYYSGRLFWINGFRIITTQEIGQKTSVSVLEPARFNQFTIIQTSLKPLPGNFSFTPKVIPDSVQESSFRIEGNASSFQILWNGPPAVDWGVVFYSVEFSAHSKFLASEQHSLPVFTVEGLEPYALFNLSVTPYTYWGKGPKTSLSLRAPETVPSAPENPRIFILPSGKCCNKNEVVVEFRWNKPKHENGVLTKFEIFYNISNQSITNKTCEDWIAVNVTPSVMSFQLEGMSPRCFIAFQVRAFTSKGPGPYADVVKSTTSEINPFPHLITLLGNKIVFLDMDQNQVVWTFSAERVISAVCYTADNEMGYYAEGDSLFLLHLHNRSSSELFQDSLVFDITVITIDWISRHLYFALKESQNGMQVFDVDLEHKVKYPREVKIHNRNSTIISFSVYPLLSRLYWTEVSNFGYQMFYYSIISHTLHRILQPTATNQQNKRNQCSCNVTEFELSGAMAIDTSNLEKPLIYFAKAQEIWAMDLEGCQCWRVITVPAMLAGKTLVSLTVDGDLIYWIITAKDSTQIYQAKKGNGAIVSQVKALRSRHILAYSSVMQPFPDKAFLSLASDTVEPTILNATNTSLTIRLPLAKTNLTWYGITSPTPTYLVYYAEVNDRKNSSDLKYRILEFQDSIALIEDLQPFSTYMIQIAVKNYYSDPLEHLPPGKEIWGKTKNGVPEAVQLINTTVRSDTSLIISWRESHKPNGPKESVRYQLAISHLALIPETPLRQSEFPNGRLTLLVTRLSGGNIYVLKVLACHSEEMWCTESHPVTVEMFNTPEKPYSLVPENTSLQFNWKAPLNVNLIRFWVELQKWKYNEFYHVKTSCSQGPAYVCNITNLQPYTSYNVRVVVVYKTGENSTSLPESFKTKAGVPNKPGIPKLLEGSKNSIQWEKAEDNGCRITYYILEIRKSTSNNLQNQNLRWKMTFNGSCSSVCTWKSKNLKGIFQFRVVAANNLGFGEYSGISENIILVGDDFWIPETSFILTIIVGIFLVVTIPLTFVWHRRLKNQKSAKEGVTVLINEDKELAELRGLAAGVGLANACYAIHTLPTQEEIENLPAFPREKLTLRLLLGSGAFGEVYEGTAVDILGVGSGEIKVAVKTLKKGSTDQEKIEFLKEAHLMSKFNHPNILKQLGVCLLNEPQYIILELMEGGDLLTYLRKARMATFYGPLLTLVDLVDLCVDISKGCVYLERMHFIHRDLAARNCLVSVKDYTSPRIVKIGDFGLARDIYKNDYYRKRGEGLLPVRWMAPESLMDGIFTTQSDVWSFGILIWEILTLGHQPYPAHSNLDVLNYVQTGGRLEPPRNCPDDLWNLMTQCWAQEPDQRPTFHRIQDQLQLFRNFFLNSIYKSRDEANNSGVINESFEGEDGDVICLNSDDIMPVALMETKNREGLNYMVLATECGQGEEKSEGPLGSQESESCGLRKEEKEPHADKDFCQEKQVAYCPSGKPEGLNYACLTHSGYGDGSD
T7 sequence (Q9P0L2 whole entry): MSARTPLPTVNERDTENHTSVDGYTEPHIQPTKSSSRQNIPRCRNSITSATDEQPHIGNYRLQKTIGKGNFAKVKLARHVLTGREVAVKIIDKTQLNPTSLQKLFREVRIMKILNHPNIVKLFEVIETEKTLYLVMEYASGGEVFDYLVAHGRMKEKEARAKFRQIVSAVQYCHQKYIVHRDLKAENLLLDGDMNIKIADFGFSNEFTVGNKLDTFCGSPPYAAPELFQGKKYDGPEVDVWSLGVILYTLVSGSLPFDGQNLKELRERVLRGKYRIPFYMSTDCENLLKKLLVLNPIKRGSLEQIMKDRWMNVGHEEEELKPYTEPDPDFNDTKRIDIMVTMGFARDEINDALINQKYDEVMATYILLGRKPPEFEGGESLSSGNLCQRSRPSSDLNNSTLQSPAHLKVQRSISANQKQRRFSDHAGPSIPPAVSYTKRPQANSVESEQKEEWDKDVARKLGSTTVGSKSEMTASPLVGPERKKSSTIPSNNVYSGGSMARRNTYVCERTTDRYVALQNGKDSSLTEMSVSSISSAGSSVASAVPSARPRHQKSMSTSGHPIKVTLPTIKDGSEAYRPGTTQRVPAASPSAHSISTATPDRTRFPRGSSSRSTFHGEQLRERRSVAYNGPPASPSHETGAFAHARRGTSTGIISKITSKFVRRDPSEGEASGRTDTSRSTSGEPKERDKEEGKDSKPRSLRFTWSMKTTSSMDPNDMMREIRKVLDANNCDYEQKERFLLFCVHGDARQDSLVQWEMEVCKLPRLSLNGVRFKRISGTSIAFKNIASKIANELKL
T3 sequence (Q9C098 whole entry): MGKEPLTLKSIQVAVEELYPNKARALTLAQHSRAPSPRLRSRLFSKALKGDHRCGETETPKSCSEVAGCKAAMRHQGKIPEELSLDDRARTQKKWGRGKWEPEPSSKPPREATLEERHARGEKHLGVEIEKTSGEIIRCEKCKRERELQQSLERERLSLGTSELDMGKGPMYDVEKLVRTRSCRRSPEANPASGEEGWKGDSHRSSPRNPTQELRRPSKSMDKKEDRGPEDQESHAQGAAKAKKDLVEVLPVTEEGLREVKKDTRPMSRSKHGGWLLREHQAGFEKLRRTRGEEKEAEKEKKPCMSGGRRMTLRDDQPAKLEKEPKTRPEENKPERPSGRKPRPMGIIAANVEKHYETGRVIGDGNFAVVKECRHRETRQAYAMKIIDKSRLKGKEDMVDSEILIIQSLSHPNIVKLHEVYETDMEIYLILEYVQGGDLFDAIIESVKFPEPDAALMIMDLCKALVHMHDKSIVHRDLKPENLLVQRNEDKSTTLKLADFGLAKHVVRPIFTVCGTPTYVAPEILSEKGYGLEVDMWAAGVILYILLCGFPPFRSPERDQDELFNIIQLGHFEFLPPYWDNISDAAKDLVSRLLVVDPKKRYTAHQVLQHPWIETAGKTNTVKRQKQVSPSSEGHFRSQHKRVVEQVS
T8 sequence (Q96RR4 whole entry): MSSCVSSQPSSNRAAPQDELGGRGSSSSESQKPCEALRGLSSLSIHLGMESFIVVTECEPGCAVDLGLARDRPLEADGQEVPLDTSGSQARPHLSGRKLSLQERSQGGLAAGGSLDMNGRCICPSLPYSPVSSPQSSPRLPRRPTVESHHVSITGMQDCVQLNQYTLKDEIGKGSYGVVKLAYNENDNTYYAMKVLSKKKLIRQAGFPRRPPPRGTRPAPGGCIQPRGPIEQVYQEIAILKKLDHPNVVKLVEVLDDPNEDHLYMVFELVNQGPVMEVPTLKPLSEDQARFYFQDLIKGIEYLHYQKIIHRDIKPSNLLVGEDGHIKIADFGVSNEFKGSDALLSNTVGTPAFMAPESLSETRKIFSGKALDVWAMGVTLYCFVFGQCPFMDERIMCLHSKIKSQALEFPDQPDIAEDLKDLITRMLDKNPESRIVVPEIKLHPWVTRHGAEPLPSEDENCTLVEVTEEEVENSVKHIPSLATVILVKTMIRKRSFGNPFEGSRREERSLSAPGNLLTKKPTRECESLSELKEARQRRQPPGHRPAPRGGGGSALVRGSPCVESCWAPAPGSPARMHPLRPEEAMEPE

SMILES	remaining binding at 10 µM ([1]; ROS1, 10 µM)	remaining binding at 10 µM [2]	remaining binding at 10 µM [3]	remaining binding at 10 µM [4]	remaining binding at 10 µM [5]	remaining binding at 10 µM [6]	remaining binding at 10 µM [7]	remaining binding at 10 µM [8]	remaining binding at 10 µM [9]	remaining binding at 10 µM ([1]; kinase ROS1, 10 µM)
CCN1CCN(Cc2ccc(NC(=O)c3ccc(C)c(NC(=O)c4cncc(-c5cccs5)c4)c3)cc2C(F)(F)F)CC1 [ALW-II-41-27]	> 30%	0.2%	> 30%	> 30%	12%	> 30%	> 30%	> 30%	> 30%	–
CCN1CCN(Cc2ccc(NC(=O)c3ccc(C)c(/C=C/c4cnc5[nH]ccc5c4Cl)c3)cc2C(F)(F)F)CC1 [HG-6-63-01, (E)-3-(2-(4-chloro-1H-pyrrolo[2,3-b]pyridin-5-yl)vinyl)-N-(4-((4-ethylpiperazin-1-yl)methyl)-3-(trifluoromethyl)phenyl)-4-methylbenzamide]	> 30%	0.1%	2.5%	> 30%	22%	> 30%	> 30%	> 30%	> 30%	–
CCN1CCN(Cc2ccc(NC(=O)c3ccc(C)c(C#Cc4cccnc4)c3)cc2C(F)(F)F)CC1 [XMD15-44]	–	0.05%	> 30%	> 30%	> 30%	> 30%	> 30%	7.8%	> 30%	46%
